Reference: US20060016765A1, “Water treatment” (priority 2004, published 2006)
“And” between values parts separate entries of the source, which are not always exact repeats. Equal values may be shown once. Read-outs that look alike come from different tables or passages of the source.

How the values were obtained:
Type in all cases: cell-based
[1] = test system: Staphylococcus aureus ATCC 6538; assay: Microbial efficacy, modified AOAC 965.13, serial-dilution plate count
[2] = test system: Pseudomonas aeruginosa ATCC 15442; assay: as above
[3] = test system: Salmonella choleraesuis ATCC 10708
[4] = test system: Aspergillus fumigatus ATCC 1098; assay: Fungicidal activity, modified AOAC Method 955.17, spore kill; conditions: for reduction of the fungal bioburden: solutions equivalent to amounts found in the tablet solution
Method: This assay had several modifications from the published AOAC Fungicidal Activity of Disinfectants Protocol, Method 955.17. Aspergillus fumigatus ATCC 1098 was grown on Malt Extract Agar (available from Becton Dickinson, Billerica, Mass.) plates, and spores were harvested. Spores were stored in filter-sterilized Millipore water at −20° C. The spore preparation used for this experiment is detailed below. A freezer stock of A. fumigatus was defrosted and diluted to obtain an inoculum suspension for this experiment. […] The following test solutions were prepared using filter-sterilized MILLIPORE water in steam-sterilized 4 L bottles:
Water Control: (filter-sterilized water only), pH 6.28.
OXONE Control: 3.78 g OXONE in 1 gallon (about 3.8 liters) sterile water, buffered to pH 4.43 using 0.98 g NaHCO3 and 5.25 g 10% H2SO4.
Chlorite Control: 0.26 g of sodium chlorite in 1-gallon sterile water buffered to pH 4.55 (1.8 g 10% H2SO4).
Buffer Control: sodium bicarbonate, pH adjusted to 4.4.
Chlorine Dioxide: Anthium Dioxide (stabilized sodium chlorite available from IDI, North Kingston, R1) was acidified with HCl.
CLOROX control: 4.17% (v/v) CLOROX bleach available from Clorox Company, Oakland, Calif. (v/v) in MILLIPORE water by mixing 4.17 ml of Clorox bleach and water up to 100 ml total volume.
Reaction tubes: 5 ml of each test solution was aliquoted into 25×150 mm test culture tubes, capped and labeled according to Table 6. 9 ml of D/E (Dey/Engley) Neutralizing Broth (available from Becton Dickinson, Billerica, Mass.) was added to each of 28 test tubes and the tubes were capped. Butterfield buffer blanks were arranged for dilution of neutralized samples, and Malt Extract Agar plates were numbered for spore enumerations of the diluted, neutralized samples. With a graduated pipette, 0.5 ml of spore inoculum (about […]) was added to the first tube of test solution and gently shaken. After 5- and 15-minute exposures to the respective test solutions, samples were gently shaken and 1 ml samples were removed from each reaction mixture (spore-test solution) using an Eppendorf pipette and placed in 9 ml D/E (Dey/Engley) Neutralizing Broth. The inoculum was further diluted to approximately 10^4 condia/ml. Two more reaction tubes (water and OXONE-chlorite) and four Dey/Engley neutralization tubes were prepared to evaluate the efficacy of the tablet solution versus a final inoculum density of 10^4 condia/ml in the reaction tube. Samples were reacted for 15 minutes only. Dilutions of neutralized samples were prepared. Two 100 μl aliquots of all samples in D/E (Dey/Engley) Neutralizing Broth were plated on Malt Extract Agar and incubated at 25° C. until the appearance of colonies. Plates were counted after colonies appeared, roughly 4 days after incubation. Several dilutions of the inoculum spore suspensions were also plated on Malt Extract Agar to obtain an accurate count of viable spores used as inoculum. The samples were incubated at 25° C. and counted after the appearance of colonies, after about 4 days of incubation.
Buffer control data was taken after 15 minutes. CLOROX control data was taken after 5 minutes of treatment.

[5] = 30 sec exposure, Example 11 = 1,008 ppm Oxone + 55.5 ppm Chlorite, controls 1,008 ppm Oxone, 55.5 ppm Chlorite, 23.2 ppm ClO2
[6] = 30 sec exposure, Example 11 = 1,008 ppm Oxone + 55.5 ppm Chlorite, controls 1,008 ppm Oxone, 55.5 ppm Chlorite, 23.2 ppm ClO2, low level of detection 1.0E+01 CFU/mL
[7] = 10 min exposure, Example 11 = 1,008 ppm Oxone + 55.5 ppm Chlorite, controls 1,008 ppm Oxone, 55.5 ppm Chlorite, 23.2 ppm ClO2
[8] = 10 min exposure, Example 11 = 1,008 ppm Oxone + 55.5 ppm Chlorite, controls 1,008 ppm Oxone, 55.5 ppm Chlorite, 23.2 ppm ClO2, low level of detection 1.0E+01 CFU/mL

Molecule | Δt (log difference test and control densities) [1, 5] [log] | CFU/ml [1, 6] [E + 06 CFU/ml] | Δt (log difference test and control densities) [1, 7] [log] | CFU/ml [1, 8] | Δt (log difference test and control densities) [2, 5] [log] | CFU/ml [2, 6] | Δt (log difference test and control densities) [2, 7] [log] | CFU/ml [2, 8] | Surviving Bioburden Counts (germinating spores, conidia/ml) ([4]; 5 min, 2 replicates average) [E + 05 conidia/ml] | Surviving Bioburden Counts (germinating spores, conidia/ml) ([4]; 15 min, 2 replicates average) [E + 05 conidia/ml] | reduction of the fungal bioburden [4] | reduction of the bioburden within 15 minutes of treatment [4] | CFU/ml [3] | other results
sodium chlorite [Chlorite control] | 0.0 | 1.23 | 0.1 | 1.20E + 06 CFU/ml | −0.1 | 1.17E + 06 CFU/ml | 0.0 | 1.21E + 06 CFU/ml | 4.25 | 6.25 | ineffective in reducing the fungal bioburden | not able to reduce the bioburden |  | Δt (log difference test and control densities) [3, 5]: −0.3 log; CFU/ml [3, 6]: 3.09E + 06 CFU/ml; Δt (log difference test and control densities) [3, 7]: 0.2 log; CFU/ml [3, 8]: 1.27E + 06 CFU/ml
[O][Cl+][O-] [ClO2 control, chlorine dioxide] |  |  |  |  |  |  |  |  |  |  |  |  | 1.00E + 01 CFU/ml | CFU/ml [1]: 1.00E + 01 CFU/ml; Δt (log difference test and control densities) [1]: 5.1 log and 5.2 log; CFU/ml [2]: 1.00E + 01 CFU/ml; Δt (log difference test and control densities) [2]: 5 log and 5.0 log and 5.1 log; Δt (log difference test and control densities) [3]: 5.1 log and 5.3 log; Surviving Bioburden Counts (germinating spores, conidia/ml) [4]: 0.00E + 00 conidia/ml; kill of A. fumigatus spores within 5 minutes [4]: 5 log
triple salt of potassium monopersulfate, potassium hydrogen sulfate and potassium sulfate [Oxone control] | 0.0 | 1.52 | 0.4 | 6.15E + 05 CFU/ml | 0.0 | 9.50E + 05 CFU/ml | 5.1 | 1.00E + 01 CFU/ml | 3.45 | 5.70 | ineffective in reducing the fungal bioburden | not able to reduce the bioburden | 2.95E + 03 CFU/ml and 2.14E + 06 CFU/ml | 
